Results taken from patent publication US4921850A, “3-propenylcephem derivative” (Eisai Co., Ltd., priority 1986, dated 1990).
Converted amounts (≈) assume the structure as drawn. Where two headings read alike, the source gives them in different places.

Columns and labels:
[1] = system: Enterobacter cloacae E-74; experiment: Comparison test of anti-bacterial activity (MIC); type: cell-based; details: E74, 18 h, comparison R1 = CH2F vs CH3
Description: (§1) MIC (μg/ml) were determined by an agar dilution method [Chemotherapy (Japan), 29, 76-79, 1981]. Overnight cultures of the bacterial strains in Mueller-Hinton broth were diluted to final concentration of about 10^6 CFU/ml, and 5 μl of each bacterial suspension was spotted onto Mueller-Hinton agar plates that contained twofold serial dilutions of antibiotics. MICs were measured after incubation for 18 hours at 37° C.
(§2) Comparison tests of the anti-bacterial activities were conducted between the compounds of the following formula according to the present invention and the corresponding control compounds wherein R1 represents methyl group. Measurements of MIC are the same as described in the above item 2.

[2] = system: Xantomonas maltophilia E 04004; experiment: Comparison test of anti-bacterial activity (MIC); type: cell-based; details: 18 h, comparison R1 = CH2F vs CH3
Description: as §1, §2

Staph. aureus E 31106 = experiment: Comparison test of anti-bacterial activity (MIC); type: cell-based; details: Staphylococcus aureus, E31106, 18 h, comparison R1 = CH2F vs CH3
Description: as §1, §2

Proteus vulgaris E 08042 = experiment: Comparison test of anti-bacterial activity (MIC); type: cell-based; details: E08042, 18 h, comparison R1 = CH2F vs CH3
Description: as §1, §2

[3] = system: Morganella morganii EP-14; experiment: Anti-bacterial activity (MIC), agar dilution; type: cell-based; details: Morganella morganii, EP14, 18 h, about 10^6 CFU/ml, 37° C., read-out: MIC
Outline: (§3)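 Read-out is MIC (μg/ml) after 18 hours at 37° C on Mueller-Hinton agar with twofold antibiotic series. Inoculum: overnight broth cultures diluted to ~10^6 CFU/ml, spotted.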

Kleb. pneumoniae EK-6 = experiment: Anti-bacterial activity (MIC), agar dilution; type: cell-based; details: Klebsiella pneumoniae, EK6, 18 h
Outline: as §3

Escher. coli NIHJ = experiment: Anti-bacterial activity (MIC), agar dilution; type: cell-based; details: Escherichia coli, 18 h, Escher. coli NIHJ; agar dilution, about 10^6 CFU/ml, 18 hours, 37° C.; read-out: MIC
Outline: as §3

Staph. aureus 209-P = experiment: Anti-bacterial activity (MIC), agar dilution; type: cell-based; details: Staphylococcus aureus, 209P, 18 h, Staph. aureus 209-P; agar dilution, about 10^6 CFU/ml, 18 hours, 37° C.; read-out: MIC
Outline: as §3

Ser. marcescens ES-75 = experiment: Anti-bacterial activity (MIC), agar dilution; type: cell-based; details: Serratia marcescens, ES75, 18 h, Ser. marcescens ES-75; agar dilution, about 10^6 CFU/ml, 18 hours, 37° C.; read-out: MIC
Outline: as §3

Pseud. aeruginosa EP-01 = experiment: Anti-bacterial activity (MIC), agar dilution; type: cell-based; details: Pseudomonas aeruginosa, EP01, 18 h, Pseud. aeruginosa EP-01; agar dilution, about 10^6 CFU/ml, 18 hours, 37° C.; read-out: MIC
Outline: as §3

in vivo = details: read-out: values of acute toxicity
From the text: (1) Acute toxicity in mouse:
The compounds according to this invention dissolved in a physiological saline solution were intravenously dosed to five ICR male 6 weeks-old mouse.

[4] = Kleb. pneumoniae EK-6, agar dilution, about 10^6 CFU/ml, 18 hours, 37° C., read-out: MIC
[5] = intravenous, physiological saline solution, five ICR male 6 weeks-old mouse

Row | SMILES | MIC [1] [µg/mL] | MIC [2] [µg/mL] | MIC (Staph. aureus E 31106) [µg/mL] | MIC (Proteus vulgaris E 08042) [µg/mL] | MIC [3] [µg/mL] | MIC (Kleb. pneumoniae EK-6; [4]) [µg/mL] | MIC (Escher. coli NIHJ) [µg/mL] | MIC (Staph. aureus 209-P) [µg/mL] | MIC (Ser. marcescens ES-75) [µg/mL] | MIC (Pseud. aeruginosa EP-01) [µg/mL] | LD50 (in vivo; [5]) [mg/kg] | MIC (Kleb. pneumoniae EK-6) [µg/mL] | LD50 (in vivo; mouse, iv) [mg/kg]
1 | NC(=O)C[N+]1(C/C=C/C2=C(C(=O)[O-])N3C(=O)[C@@H](NC(=O)/C(=N\OCF)c4nsc(N)n4)[C@H]3SC2)CCC(O)CC1 (stereo partly drawn) [Example 11, 7β-[2-(5-Amino-1,2,4-thiadiazol-3-yl)-(Z)-2-fluoromethoxyiminoacetamido]-3-[(E)-3-(1-carbamoylmethyl-4-hydroxy-1-piperidinio)-1-propen-1-yl]-3-cephem-4-carboxylate] |  |  |  |  | ≤ 0.025 | ≤ 0.025 | ≤ 0.025 | 0.4 (≈ 0.668 µM) | ≤ 0.025 | 0.8 (≈ 1.34 µM) | > 2000 |  | 
2 | CC12C[N+](C/C=C/C3=C(C(=O)[O-])N4C(=O)[C@@H](NC(=O)/C(=N\OCF)c5nsc(N)n5)[C@H]4SC3)(CCO1)CCO2 [Example 12, 7β-[2-(5-Amino-1,2,4-thiadiazol-3-yl)-(Z)-2-fluoromethoxyiminoacetamido]-3-[(E)-3-(5-aza-1-methyl-2,8-dioxabicyclo[3.3.1]nona-5-io)-1-propen-1-yl]-3-cephem-4-carboxylate] |  |  |  |  | 0.05 (≈ 0.0857 µM) |  | 0.05 (≈ 0.0857 µM) | 0.4 (≈ 0.685 µM) | 0.1 (≈ 0.171 µM) | 1.56 (≈ 2.67 µM) | > 2000 | ≤ 0.025 | 
3 | CC[N+](CC)(C/C=C/C1=C(C(=O)[O-])N2C(=O)[C@@H](NC(=O)/C(=N\OCF)c3nsc(N)n3)[C@H]2SC1)CC(N)=O [Example 96] |  |  |  |  | ≤ 0.025 | ≤ 0.025 | ≤ 0.025 | 0.2 (≈ 0.35 µM) | ≤ 0.025 | 0.8 (≈ 1.4 µM) | > 2000 |  | 
4 | C[N+]1(C/C=C/C2=C(C(=O)[O-])N3C(=O)[C@@H](NC(=O)/C(=N\OCF)c4nsc(N)n4)[C@H]3SC2)CCN(C(N)=O)CC1 [Example 121, 7β-[2-(5-Amino-1,2,4-thiadiazol-3-yl)-(Z)-2-fluoromethoxyiminoacetamido]-3-[(E)-3-(1-methyl-4-carbamoyl-1-piperazinio)-1-propen-1-yl]-3-cephem-4-carboxylate] |  |  |  |  | ≤ 0.025 | ≤ 0.025 | ≤ 0.025 | 0.2 (≈ 0.343 µM) | 0.1 (≈ 0.171 µM) | 0.8 (≈ 1.37 µM) | > 2000 |  | 
5 | C[N+](C)(C/C=C/C1=C(C(=O)[O-])N2C(=O)[C@@H](NC(=O)/C(=N\OCC#N)c3nsc(N)n3)[C@H]2SC1)[C@@H](CO)C(N)=O [Example 145, 7β-[2-(5-Amino-1,2,4-thiadiazol-3-yl)-(Z)-2-cyanomethoxyiminoacetamido]-3-[(E)-3-[(1S-carbamoyl-2-hydroxyethyl)dimethylammonio]-1-propen-1-yl]-3-cephem-4-carboxylate] |  |  |  |  | 0.1 (≈ 0.173 µM) | 0.1 (≈ 0.173 µM) | 0.2 (≈ 0.345 µM) | 0.4 (≈ 0.69 µM) | 0.1 (≈ 0.173 µM) | 1.56 (≈ 2.69 µM) | > 2000 |  | 
6 | C[N@@+]1(C/C=C/C2=C(C(=O)[O-])N3C(=O)[C@@H](NC(=O)/C(=N\OCC#N)c4nsc(N)n4)[C@H]3SC2)C[C@H](O)C[C@@H]1CO [Example 146, 7β-[2-(5-Amino-1,2,4-thiadiazol-3-yl)-(Z)-2-cyanomethoxyiminoacetamido]-3-[(E)-3-(1-methyl-2R-hydroxymethyl-4R-hydroxy-1-pyrrolidinio)-1-propen-1-yl]-3-cephem-4-carboxylate] |  |  |  |  | 0.05 (≈ 0.0864 µM) | 0.05 (≈ 0.0864 µM) | 0.1 (≈ 0.173 µM) | 0.4 (≈ 0.691 µM) | 0.05 (≈ 0.0864 µM) | 1.56 (≈ 2.7 µM) |  |  | > 2000
7 | CC(=O)C[N+](C)(C)C/C=C/C1=C(C(=O)[O-])N2C(=O)[C@@H](NC(=O)/C(=N\OCC#N)c3nsc(N)n3)[C@H]2SC1 [Example 154] |  |  |  |  | 0.1 (≈ 0.182 µM) | 0.1 (≈ 0.182 µM) | 0.1 (≈ 0.182 µM) | 0.4 (≈ 0.729 µM) | 0.1 (≈ 0.182 µM) | 0.8 (≈ 1.46 µM) | > 2000 |  | 
8 | C[N+](C)(C/C=C/C1=C(C(=O)[O-])N2C(=O)[C@@H](NC(=O)/C(=N\OCC#N)c3nsc(N)n3)[C@H]2SC1)CC(N)=O [Example 155] |  |  |  |  | 0.1 (≈ 0.182 µM) | 0.05 (≈ 0.091 µM) | 0.1 (≈ 0.182 µM) | 0.4 (≈ 0.728 µM) | 0.2 (≈ 0.364 µM) | 1.56 (≈ 2.84 µM) | > 2000 |  | 

Further lines, with some results ahead:

Row | MIC [1] [µg/mL] | MIC [2] [µg/mL] | MIC (Staph. aureus E 31106) [µg/mL] | MIC (Proteus vulgaris E 08042) [µg/mL] | SMILES | MIC [3] [µg/mL] | MIC (Kleb. pneumoniae EK-6; [4]) [µg/mL] | MIC (Escher. coli NIHJ) [µg/mL] | MIC (Staph. aureus 209-P) [µg/mL] | MIC (Ser. marcescens ES-75) [µg/mL] | MIC (Pseud. aeruginosa EP-01) [µg/mL] | LD50 (in vivo; [5]) [mg/kg] | MIC (Kleb. pneumoniae EK-6) [µg/mL] | LD50 (in vivo; mouse, iv) [mg/kg]
9 | 3.13 (≈ 5.74 µM) | 50 (≈ 91.6 µM) | 12.5 (≈ 22.9 µM) | 12.5 (≈ 22.9 µM) | CO/N=C(\C(=O)N[C@@H]1C(=O)N2C(C(=O)[O-])=C(/C=C/C[n+]3ccc(C(=O)O)cc3)CS[C@H]12)c1nsc(N)n1 [CH3 (Control) to Example 125, reference compound] |  |  |  |  |  |  |  |  | 
10 | 0.1 (≈ 0.197 µM) | 100 (≈ 197 µM) |  | 1.56 (≈ 3.07 µM) | CO/N=C(\C(=O)N[C@@H]1C(=O)N2C(C(=O)[O-])=C(/C=C/C[N+]3(C)CCCC3)CS[C@H]12)c1nsc(N)n1 [CH3 (Control) to Example 126, reference compound] |  |  |  |  |  |  |  |  | 
11 | 0.4 (≈ 0.735 µM) | 50 (≈ 91.8 µM) | 6.25 (≈ 11.5 µM) | 3.13 (≈ 5.75 µM) | CO/N=C(\C(=O)N[C@@H]1C(=O)N2C(C(=O)[O-])=C(/C=C/C[n+]3ccc(C(N)=O)cc3)CS[C@H]12)c1nsc(N)n1 [CH3 (Control) to Example 127, reference compound] |  |  |  |  |  |  |  |  | 
12 | 0.2 (≈ 0.415 µM) | > 100 | 6.25 (≈ 13 µM) | 6.25 (≈ 13 µM) | CO/N=C(\C(=O)N[C@@H]1C(=O)N2C(C(=O)[O-])=C(/C=C/C[N+](C)(C)C)CS[C@H]12)c1nsc(N)n1 [CH3 (Control) to Example 128, reference compound] |  |  |  |  |  |  |  |  | 
13 | 0.4 (≈ 0.71 µM) | 25 (≈ 44.4 µM) | 6.25 (≈ 11.1 µM) | 0.2 (≈ 0.355 µM) | Nc1nc(/C(=N/OCF)C(=O)N[C@@H]2C(=O)N3C(C(=O)[O-])=C(/C=C/C[n+]4ccc(C(=O)O)cc4)CS[C@H]23)ns1 [Example 125, 7β-[2-(5-Amino-1,2,4-thiadiazol-3-yl)-(Z)-2-fluoromethoxyiminoacetamido]-3-[(E)-3-(4-carboxypyridinio)-1-propen-1-yl]-3-cephem-4-carboxylate] | ≤ 0.025 | ≤ 0.025 | ≤ 0.025 | 0.4 (≈ 0.71 µM) | ≤ 0.025 | 1.56 (≈ 2.77 µM) |  |  | 
14 | 0.05 (≈ 0.0951 µM) | 12.5 (≈ 23.8 µM) | 1.56 (≈ 2.97 µM) | 0.05 (≈ 0.0951 µM) | C[N+]1(C/C=C/C2=C(C(=O)[O-])N3C(=O)[C@@H](NC(=O)/C(=N\OCF)c4nsc(N)n4)[C@H]3SC2)CCCC1 [Example 126, 7β-[2-(5-Amino-1,2,4-thiadiazol-3-yl)-(Z)-2-fluoromethoxyiminoacetamido]-3-[(E)-3-(1-methylpyrrolidinio)-1-propen-1-yl]-3-cephem-4-carboxylate] | ≤ 0.025 | ≤ 0.025 | ≤ 0.025 | 0.1 (≈ 0.19 µM) | 0.05 (≈ 0.0951 µM) | 0.8 (≈ 1.52 µM) |  |  | 
15 | ≤ 0.025 | 6.25 (≈ 11.1 µM) | 3.13 (≈ 5.56 µM) | ≤ 0.025 | NC(=O)c1cc[n+](C/C=C/C2=C(C(=O)[O-])N3C(=O)[C@@H](NC(=O)/C(=N\OCF)c4nsc(N)n4)[C@H]3SC2)cc1 [Example 127, 7β-[2-(5-Amino-1,2,4-thiadiazol-3-yl)-(Z)-2-fluoromethoxyiminoacetamido]-3-[(E)-3-(4-carbamoylpyridinio)-1-propen-1-yl]-3-cephem-4-carboxylate] | ≤ 0.025 | ≤ 0.025 | ≤ 0.025 | 0.1 (≈ 0.178 µM) | 0.05 (≈ 0.0889 µM) | 0.8 (≈ 1.42 µM) |  |  | 
16 | 0.1 (≈ 0.2 µM) | 25 (≈ 50 µM) | 3.13 (≈ 6.27 µM) | 0.1 (≈ 0.2 µM) | C[N+](C)(C)C/C=C/C1=C(C(=O)[O-])N2C(=O)[C@@H](NC(=O)/C(=N\OCF)c3nsc(N)n3)[C@H]2SC1 [Example 128, 7β-[2-(5-Amino-1,2,4-thiadiazol-3-yl)-(Z)-2-fluoromethoxyiminoacetamido]-3-[(E)-3-(trimethylammonio)-1-propen-1-yl]-3-cephem-4-carboxylate] | 0.05 (≈ 0.1 µM) | 0.05 (≈ 0.1 µM) | 0.05 (≈ 0.1 µM) | 0.2 (≈ 0.4 µM) | 0.1 (≈ 0.2 µM) | 0.8 (≈ 1.6 µM) |  |  | 
